Here are results for 14 compounds from patent publication US4672054A, “Process for the preparation of angiotensin-II analogues substituted in the 1-, 5- and 8- positions” (Richter Gedeon Vegyeszeti Gyar Rt., priority 1984, dated 1987).

Like-named read-outs stand apart in the source and are kept apart here. Where a SMILES comes first, the peptide text is derived from it. [ ]: non-standard residue; d: D form. The star is where a group is joined. Gly(cPent) = N[C@H](C(=O)O)C1CCCC1; Chg = N[C@H](C(=O)O)C1CCCCC1; Lac = C[C@H](O)C(=O)O; Glycolyl = O=C(CO)*; Sar = CNCC(=O)O

The subject of one data set is aldosterone production. In kind it is cell-based. On the procedure: (§1) The octapeptides of the formula (I) are purified in a manner known per se, preferably by cellulose ion exchange chromatography. As a result, compounds are generally obtained as lyophilized powders, which can be converted into the corresponding acid addition salts or complexes. The inhibiting effect of the compounds of the formula (I) on the aldosterone production and vasoconstriction was tested in in vitro experiments.

In data set [1] the test system is isolated rabbit aorta vessel preparate. Type of data set: cell-based. On the procedure: as §1
In the latter test the inhibition of vasoconstriction induced by AII is measured on isolated rabbit aorta vessel preparate [J. Pharmacol. Exp. Ther., 108, 129 (1953)].

Data set [2] deals with awake rats. The data set can be described thus: hypotensive activity in vivo on awake rats (modified method by Pals), AII challenge. More on the design: species or system rat. As to conditions: peptide 1 mg/kg subcutaneously, 1.0 μg/kg AII intravenously from the fifth minute over three hours. On the procedure:
The hypotensive activity of the new compounds was tested in vivo on awake rats, according to the modified method by Pals [Circ. Res. 29, 664 (1971)].
The results are illustrated in FIG. 1.
At first a dose--effect curve was registered for AII on rats. The peptides were administered subcutaneously, in 1 mg/kg doses. In the fifth minute after administration and repeatedly in the next three hours 1.0 μg/kg of AII was added intravenously. The statistical evalulation was performed by variancy analysis.

In data set [3] the test system is awake rats. Kind of data set: temporary (initial) hypertensive activity on awake rats. In kind it is in vivo, rat. As to conditions: administered into the jugular vein every 20 minutes. On the procedure:
The temporary hypertensive activity of the AII analogues was tested also on awake rats. AII analogues were administered into the jugular vein in every 20 minutes. The results were evaluated by variancy analysis. The comparative results obtained on [Sar^1, Chg^5, Lac^8 ]-AII are shown on FIG. 2.

The conditions of data set [4]: Eur. J. Clin. Pharm., 23, 7 (1982); cited from earlier work.
A further data set has as its system aldosterone release. As to conditions: Eur. J. Clin. Pharm., 23, 7 (1982); cited from earlier work.

With `CC(C)[C@H](NC(=O)[C@H](CCCNC(=N)N)NC(=O)CO)C(=O)N[C@@H](Cc1ccc(O)cc1)C(=O)N[C@H](C(=O)N[C@@H](Cc1c[nH]cn1)C(=O)N1CCC[C@H]1C(=O)O[C@@H](C)C(=O)O)C1CCCCC1` [HOAc^1, CHg^5, Lac^8 --AII] (Glycolyl-RVY[Chg]HP[Lac]-OH), in the data set with aldosterone production, the “inhibition of aldosterone production pA2” value was 8.614. In addition, the “vasoconstriction inhibition, pA2” value in data set [1] came to 9.53.
The like results for `CC(C)[C@H](NC(=O)[C@H](CCCNC(=N)N)NC(=O)[C@H](C)O)C(=O)N[C@@H](Cc1ccc(O)cc1)C(=O)N[C@H](C(=O)N[C@@H](Cc1c[nH]cn1)C(=O)N1CCC[C@H]1C(=O)O[C@@H](C)C(=O)O)C1CCCC1` [Lac^1, Cpg^5, Lac^8 --AII] (H-[Lac]RVY[Gly(cPent)]HP[Lac]-OH) were, in that order, 8.392 and 8.52.
For the compound `CC[C@H](C)[C@H](NC(=O)[C@@H]1CCCN1C(=O)[C@H](Cc1c[nH]cn1)NC(=O)[C@@H](NC(=O)[C@H](Cc1ccc(O)cc1)NC(=O)[C@@H](NC(=O)[C@H](CCCNC(=N)N)NC(=O)CON)C(C)C)[C@@H](C)CC)C(=O)O` [OGly^1, Ile^8 --AII, reference compound], in the data set on aldosterone production, the “inhibition of aldosterone production pA2” value is 7.94.
As for `CNCC(=O)N[C@@H](CCCNC(=N)N)C(=O)N[C@H](C(=O)N[C@@H](Cc1ccc(O)cc1)C(=O)N[C@H](C(=O)N[C@@H](Cc1c[nH]cn1)C(=O)N1CCC[C@H]1C(=O)N[C@@H](C)C(=O)O)C1CCCCC1)C(C)C` [Sar^1, Chg^5, Ala^8 --AII, Sar^1, Chg^5, Ala^8 -AII], the “inhibition of aldosterone production pA2” value with aldosterone production stood at 9.981. Besides, the “vasoconstriction inhibition, pA2” value in data set [1] is 11.18. Also, the “duration of hypotensive activity compared with Saralasin (FIG. 1)” value in the data set with awake rats [2] is listed as “signicantly more prolonged hypotensive activity than Saralasin”.
As for `CNCC(=O)N[C@@H](CCCN=C(N)N)C(=O)N[C@H](C(=O)N[C@@H](Cc1ccc(O)cc1)C(=O)N[C@H](C(=O)N[C@@H](Cc1c[nH]cn1)C(=O)N1CCC[C@H]1C(=O)O[C@@H](C)C(=O)O)C1CCCCC1)C(C)C` [Sar^1, Chg^5, Lac^8 --AII] (H-[Sar]RVY[Chg]HP[Lac]-OH), the “initial hypertensive activity compared with Saralasin (FIG. 2)” value in the data set on awake rats [3] is reported as “significantly lower initial hypertensive activity than Salarasine”.
As to `CNCC(=O)N[C@@H](CCCNC(=N)N)C(=O)N[C@H](C(=O)N[C@@H](Cc1ccc(O)cc1)C(=O)N[C@H](C(=O)N[C@@H](Cc1c[nH]cn1)C(=O)N1CCC[C@H]1C(=O)O[C@@H](C)C(=O)O)C1CCCCC1)C(C)C` [Sar^1, Chg^5, Lac^8 --AII] (H-[Sar]RVY[Chg]HP[Lac]-OH), the “inhibition of aldosterone production pA2” value with aldosterone production is 10.390. The “vasoconstriction inhibition, pA2” value in data set [1] was found to be 11.29.
For the compound `CNCC(=O)N[C@@H](CCCNC(=N)N)C(=O)N[C@H](C(=O)N[C@@H](Cc1ccc(O)cc1)C(=O)N[C@H](C(=O)N[C@@H](Cc1c[nH]cn1)C(=O)N1CCC[C@H]1C(=O)N[C@@H](C)C(=O)O)C1CCCC1)C(C)C` [Sar^1, Cpg^5, Ala^8 --AII], the “inhibition of aldosterone production pA2” value in the data set on aldosterone production is given as 9.933. Moreover, the “vasoconstriction inhibition, pA2” value in data set [1] came out at 9.42.
The like results for `CNCC(=O)N[C@@H](CCCNC(=N)N)C(=O)N[C@H](C(=O)N[C@@H](Cc1ccc(O)cc1)C(=O)N[C@H](C(=O)N[C@@H](Cc1c[nH]cn1)C(=O)N1CCC[C@H]1C(=O)O[C@@H](C)C(=O)O)C1CCCC1)C(C)C` [Sar^1, Cpg^5, Lac^8 --AII] (H-[Sar]RVY[Gly(cPent)]HP[Lac]-OH) were, in that order, 9.649 and 11.09.
Regarding `CC[C@H](C)[C@H](NC(=O)[C@H](Cc1ccc(O)cc1)NC(=O)[C@@H](NC(=O)[C@H](CCCNC(=N)N)NC(=O)CNC)C(C)C)C(=O)N[C@@H](Cc1c[nH]cn1)C(=O)N1CCC[C@H]1C(=O)N[C@H](C(=O)OC)[C@@H](C)CC` [Sar^1, Ile^8 --AII--OMe, reference compound], in the data set on aldosterone production, the “inhibition of aldosterone production pA2” value is 8.98.
For the compound `CC[C@H](C)[C@H](NC(=O)[C@H](Cc1ccc(O)cc1)NC(=O)[C@@H](NC(=O)[C@H](CCCNC(=N)N)NC(=O)CNC)C(C)C)C(=O)N[C@@H](Cc1c[nH]cn1)C(=O)N1CCC[C@H]1C(=O)O[C@@H](C)C(=O)O` [Sar^1, Lac^8 --AII, reference compound], in the data set on aldosterone production, the “inhibition of aldosterone production pA2” value worked out at 9.649. The “vasoconstriction inhibition, pA2” value in data set [1] is 11.02.
Take `CCOC(=O)[C@H](C)OC(=O)[C@@H]1CCCN1C(=O)[C@H](Cc1c[nH]cn1)NC(=O)[C@@H](NC(=O)[C@H](Cc1ccc(O)cc1)NC(=O)[C@@H](NC(=O)[C@H](CCCNC(=N)N)NC(=O)CNC)C(C)C)[C@@H](C)CC` [Sar^1, Lac^8 --AII--OEt, reference compound]: the “inhibition of aldosterone production pA2” value with aldosterone production is given as 9.27.
For `CNCC(=O)N[C@@H](CCCN=C(N)N)C(=O)N[C@H](C(=O)N[C@@H](Cc1ccc(O)cc1)C(=O)N[C@H](C(=O)N[C@@H](Cc1cnc[nH]1)C(=O)N1CCC[C@H]1C(=O)N[C@@H](C)C(=O)O)C(C)C)C(C)C` [Sar^1, Val^5, Ala^8 --AII, Saralasin, reference compound], in the data set on aldosterone production (in vitro, pA2), the “inhibition of aldosterone production pA2” value is given as 9.634. Further, in data set [1] (AII-induced vasoconstriction, isolated rabbit aorta, pA2), the “vasoconstriction inhibition, pA2” value came out at 11.10.
As to Sar^1, HMV^8 --AII [reference compound], the “inhibition of aldosterone production pA2” value in the data set with aldosterone production (in vitro, pA2) came out at 10.589.
For the compound [Sar^1, Thr^8 ]-AII, the agonistic activity result in data set [4] was “small”. In addition, the “aldosterone release inhibiting effect” value with aldosterone release is “no aldosterone release inhibiting effect”.
